# Legend:
# [1] = tested on: persistent edema due to neovascular AMD; experiment: Example 2: randomized, subject-masked trial of intravitreal sirolimus plus anti-VEGF (aflibercept) versus anti-VEGF alone (OCT CST and BCVA); type: in vivo, human
# Source text: This study was a single-center, randomized, subject-masked trial over the course of […] with eleven scheduled visits. Study Population. Twenty human patients, who were 50 years of age or older at baseline were recruited according to the following inclusion and exclusion criteria. If both eyes met all of the inclusion/exclusion criteria the eye with the best potential for visual improvement (worse BCVA) at baseline was selected as the study eye. If both eyes met all of the inclusion/exclusion criteria and BCVA values were identical for both eyes, the right eye was selected as the study eye. Study Treatment (Group 1). […] Intravitreal injections of EYL (aflibercept) given at weeks 1, 8, 16, 24 and 32. […] Comparator Treatment (Group 2). Intravitreal injection of EYL (aflibercept) given at baseline and weeks 8, 16, 24 and 32. […] Both intraocular pressure and the perfusion of the optic nerve head were monitored and managed appropriately after injection. […] Retreatment Criteria: Subjects in both groups received retreatment (or sham) at each scheduled visit as long as continued subretinal edema, intraretinal edema or active choroidal neovascularization was present. change in edema from baseline to week 36 as measured by CST on Heidelberg OCT. change in BCVA from baseline to week 36; and number of injections required to control choroidal neovascularization based on volume of subretinal fluid.
# [2] = tested on: exudative AMD with persistent intraretinal or subretinal edema despite previous intravitreal anti-VEGF treatment; experiment: Example 1: randomized, subject-masked trial of intravitreal sirolimus versus anti-VEGF (OCT CST and BCVA); type: in vivo, human; settings: baseline to months 3-6, subjects who completed the study through month 6, FIG. 2 and FIG. 4
# Source text: This study was a single-center, randomized, subject-masked trial over the course of six months with eight scheduled visits. Study Population. Thirty human patients, who were 50 years of age or older at baseline were recruited according to the following inclusion and exclusion criteria. If both eyes met all of the inclusion/exclusion criteria the eye with the worse BCVA at baseline was selected as the study eye. If both eyes met all of the inclusion/exclusion criteria and BCVA values were identical for both eyes, the right eye was selected as the study eye. Study Treatment (Group 1). […] Sham intravitreal injection given at month 1, month 3 and month 5. […] Intravitreal injection of anti-VEGF per patient/investigator choice (pegaptanib, aflibercept, bevacizumab or ranibizumab) given at baseline and thereafter monthly per clinical criteria. Sham intravitreal injections given when retreatment criterion was not met at month 1 or any later visit. […] Both intraocular pressure and the perfusion of the optic nerve head were monitored and managed appropriately after injection. […] The primary efficacy endpoint includes change in edema from baseline to month 6 as measured by CST on Heidelberg OCT. change in BCVA from baseline to month 6; Continuous variables will be summarized with means and standard deviations and medians with min and max values and categorical variables with frequencies and percentages. […]
Compound,"improvement in visual acuity (BCVA) ([1]; change from baseline, FIG. 5)","average change in edema from baseline (central subfield thickness, CST, by OCT) [2]","subjects in whom the need for anti-VEGF treatment to control edema was reduced ([1]; combination group, ten patients, EYL injections deferred (sham))"
aflibercept [EYL],+0.8 letters,–,–
CO[C@H]1C[C@@H]2CC[C@@H](C)[C@@](O)(O2)C(=O)C(=O)N2CCCC[C@H]2C(=O)O[C@H]([C@H](C)C[C@@H]2CC[C@@H](O)[C@H](OC)C2)CC(=O)[C@H](C)/C=C(\C)[C@@H](O)[C@@H](OC)C(=O)[C@H](C)C[C@H](C)/C=C/C=C/C=C/1C [sirolimus],–,−30 to −40,40%
